Laboratory results reported in patent US9029393B2, “Adenosine receptor ligands and uses thereof” (Kaldi Pharma, SAS, priority 2009, dated 2015).

Columns and labels:
hA2A receptor = hA2A receptor (Homo sapiens (Human), UniProt P29274); assay: A2A FRET-based binding assay; settings: HEK GFP-A2A stable cell line, dyed CGS15943-derived probe
Method: Assay protocol: Compounds were evaluated on an in-vitro binding assay developed based on the technology described in the patent WO 98/55873. This assay was developed from hA2A receptor that was fused at its amino terminal domain to Green Fluorescent Protein (GFP) and stably expressed in HEK cells. The probe used is a dyed ligand derived from the non-selective CGS15943. For the FRET-binding experiment, HEK GFP-A2A stable cell line was seeded onto poly-D-lysine precoated black-walled 96-well plates in normal growth media (0.7 10^5 cells per well). After 24 hours of culture at 37° C., the cell media was removed and cells were washed. The tested compounds were applied on cells by the FLIPR^TETRA® (Molecular Devices®) and incubated for 10 minutes prior to addition of the dyed probe. When a drug interacts with the receptor, the FRET signal measured by the variation of GFP fluorescence at 510 nm is disrupted. The time curves of ligand binding were recorded during 1000 seconds. (excitation Light Emitting Diode 470-495 nm, emission 510+/−10 nm). The percentage of inhibition allows the evaluation of the inhibitory activity of compounds in comparison to the antagonist A2A reference CGS15943. The dose-inhibition curves were fitted with variable slope, using GraphPad® Prism software, in order to determine […] and Ki values. The dose-inhibition experiments were all performed in duplicate, three times independently.

human A2A receptor = human A2A receptor (Homo sapiens, UniProt P29274); assay: A2A-antagonist Ca++ functional assay (CGS21680 at EC80); assay type: cell-based; settings: HEK cells expressing GFP-hA2A and Gα15, inhibition of CGS21680 (EC80)-induced Ca2+ increase
Excerpt: Assay protocol: HEK cells stably expressing the human A2A receptor fused at its amino terminal domain to GFP, and cultured in Modified Eagle's Medium supplemented with 10% FCS, were transiently transfected by electroporation with plasmid DNA encoding the promiscuous G protein Gα15 in order to deviate the natural coupling of the receptor from AMPc production to calcium (Ca^2+) release pathway (Brabet et al., Neuropharmacology 37:1043-1051, 1998). Receptor activity was detected by changes in intracellular Ca^2+, measured using the fluorescent Ca^2+ sensitive dye, Fluo4AM (Molecular Probes®).
Cells were plated after transfection onto polyornithine coated, clear bottom, black-walled, 96-well plates and cultured for 24 hours. The day of the test, cells were washed with freshly prepared buffer B (HBSS 1×, Hepes 20 mM, MgSO4.7H2O 1 mM, Na2CO3 3.3 mM, CaCl2-2H2O 1.3 mM, 0.5% BSA, Probenecid 2.5 mM) and loaded at 37° C. in 5% CO2 for 1.5 hours with buffer B containing 1 μM Fluo4AM and 0.1 mg/mL Pluronic Acid. Afterwards cells were washed twice with buffer B and 50 μL of this buffer were added to each well. The tested compounds were incubated […] before addition of CGS21680 (used as reference agonist) at a concentration leading to 80% of its maximal activity (EC80). Afterwards, the intracellular Ca^2+ measurements were performed on a 60s kinetic by detection of the fluorescence intensity (excitation 485 nm, emission 525 nm) using the fluorescence microplate reader FlexStation® (Molecular Devices®). All data reflect three independent experiments. Dose-response curves were fitted by using the sigmoidal dose-response (variable slope) analyze in GraphPad Prism® program (San Diego) and IC50 of antagonist compound was calculated. Dose-response experiments were all performed in triplicate, three times independently.

[1] = system: haloperidol-induced catalepsy; assay: Haloperidol-induced catalepsy model in the mouse (bar test); assay type: in vivo

Chain of hA2A receptor (P29274 whole entry, the tested form may be a part): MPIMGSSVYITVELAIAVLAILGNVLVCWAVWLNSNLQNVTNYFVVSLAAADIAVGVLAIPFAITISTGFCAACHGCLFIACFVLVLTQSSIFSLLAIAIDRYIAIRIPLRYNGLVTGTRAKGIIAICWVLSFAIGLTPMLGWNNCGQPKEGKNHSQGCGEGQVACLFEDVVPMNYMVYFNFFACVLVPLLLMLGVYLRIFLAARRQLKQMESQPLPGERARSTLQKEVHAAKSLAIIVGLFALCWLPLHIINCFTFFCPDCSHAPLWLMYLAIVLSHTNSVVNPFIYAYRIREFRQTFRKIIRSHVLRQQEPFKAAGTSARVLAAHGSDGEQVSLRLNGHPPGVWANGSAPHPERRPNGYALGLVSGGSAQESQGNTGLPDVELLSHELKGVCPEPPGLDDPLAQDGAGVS

Structure (SMILES)	Ki (hA2A receptor) [nM]	IC50 (human A2A receptor) [nM]	melting point [°C]	anti-cataleptic effect ([1]; 1 mg/kg i.p. 120 minutes after haloperidol, FIG. 1)	anti-cataleptic effect ([1]; 30 mg/kg i.p. 120 minutes after haloperidol, FIG. 1)	anti-cataleptic effect ([1]; 1, 3, 30 and 100 mg/kg i.p. 120 minutes after haloperidol (1 mg/kg i.p.), FIG. 1)	anti-cataleptic effect ([1]; 10 and 30 mg/kg per os 120 minutes after haloperidol, FIG. 2)
Nc1cc(C(=O)N2CCCCCC2)ccc1C(=O)c1cnc2ccc(F)cn12 [Example 30, [2-Amino-4-(azepane-1-carbonyl)-phenyl]-(6-fluoro-imidazo[1,2-a]pyridin-3-yl)-methanone]	103 ± 52	992 ± 11	141 to 152	–	–	–	–
O=C(c1ccc(C(=O)N2CCCc3ccccc32)cc1)c1cnc2ccccn12 [Example 71, [4-(3,4-Dihydro-2H-quinoline-1-carbonyl)-phenyl]-imidazo[1,2-a]pyridin-3-yl-methanone]	171 ± 70	1830 ± 122	169 to 175	–	–	–	–
O=C(c1ccc2c(c1)nnn2-c1cnc2ccc(F)cn12)N1CCCCCC1 [Example 132, 5-(Azepan-1-ylcarbonyl)-1-(6-fluoroimidazo[1,2-a]pyridin-3-yl)-1H-1,2,3-benzotriazole]	72 ± 10	326 ± 47	160 to 166	–	–	–	–

Now those with a lower Ki (hA2A receptor), led by results:

Ki (hA2A receptor) [nM]	IC50 (human A2A receptor) [nM]	melting point [°C]	Structure (SMILES)	anti-cataleptic effect ([1]; 1 mg/kg i.p. 120 minutes after haloperidol, FIG. 1)	anti-cataleptic effect ([1]; 30 mg/kg i.p. 120 minutes after haloperidol, FIG. 1)	anti-cataleptic effect ([1]; 1, 3, 30 and 100 mg/kg i.p. 120 minutes after haloperidol (1 mg/kg i.p.), FIG. 1)	anti-cataleptic effect ([1]; 10 and 30 mg/kg per os 120 minutes after haloperidol, FIG. 2)
12 ± 6	195 ± 100	165 to 169	O=C(c1ccc(C(=O)N2CCCCCC2)cc1)c1cnc2ccc(F)cn12 [Example 14, [4-(Azepane-1-carbonyl)-phenyl]-(6-fluoro-imidazo[1,2-a]pyridin-3-yl)-methanone]	no anticataleptic activity	the most important catalepsy reversion	significant anti-cataleptic effect in a dose-dependent manner	significant anti-cataleptic effect in a dose-dependent manner
4 ± 1	46 ± 3	218 to 219	O=C(c1ccc2c(-c3cnc4ccc(F)cn34)noc2c1)N1CCCCCC1 [Example 113, Azepan-1-yl-[3-(6-fluoro-imidazo[1,2-a]pyridin-3-yl)-benzo[d]isoxazol-6-yl]-methanone]	–	–	–	–
